Data as given in patent publication US11739098B2 (BRISTOL-MYERS SQUIBB COMPANY, priority 2017, dated 2023).

Experiments:
Type in all cases: cell-based
human TLR7 = target: T1, human TLR7 (Homo sapiens, UniProt Q9NYK1); test: TLR7 inhibition reporter assay (HEK-Blue cells, SEAP reporter, gardiquimod stimulation); details: HEK-Blue cells overexpressing human TLR7, SEAP reporter, gardiquimod 7.5 μM
T1 construct: host or cells: HEK-Blue cells (HEK293-derived reporter line)
T1 sequence (Q9NYK1 27-1049): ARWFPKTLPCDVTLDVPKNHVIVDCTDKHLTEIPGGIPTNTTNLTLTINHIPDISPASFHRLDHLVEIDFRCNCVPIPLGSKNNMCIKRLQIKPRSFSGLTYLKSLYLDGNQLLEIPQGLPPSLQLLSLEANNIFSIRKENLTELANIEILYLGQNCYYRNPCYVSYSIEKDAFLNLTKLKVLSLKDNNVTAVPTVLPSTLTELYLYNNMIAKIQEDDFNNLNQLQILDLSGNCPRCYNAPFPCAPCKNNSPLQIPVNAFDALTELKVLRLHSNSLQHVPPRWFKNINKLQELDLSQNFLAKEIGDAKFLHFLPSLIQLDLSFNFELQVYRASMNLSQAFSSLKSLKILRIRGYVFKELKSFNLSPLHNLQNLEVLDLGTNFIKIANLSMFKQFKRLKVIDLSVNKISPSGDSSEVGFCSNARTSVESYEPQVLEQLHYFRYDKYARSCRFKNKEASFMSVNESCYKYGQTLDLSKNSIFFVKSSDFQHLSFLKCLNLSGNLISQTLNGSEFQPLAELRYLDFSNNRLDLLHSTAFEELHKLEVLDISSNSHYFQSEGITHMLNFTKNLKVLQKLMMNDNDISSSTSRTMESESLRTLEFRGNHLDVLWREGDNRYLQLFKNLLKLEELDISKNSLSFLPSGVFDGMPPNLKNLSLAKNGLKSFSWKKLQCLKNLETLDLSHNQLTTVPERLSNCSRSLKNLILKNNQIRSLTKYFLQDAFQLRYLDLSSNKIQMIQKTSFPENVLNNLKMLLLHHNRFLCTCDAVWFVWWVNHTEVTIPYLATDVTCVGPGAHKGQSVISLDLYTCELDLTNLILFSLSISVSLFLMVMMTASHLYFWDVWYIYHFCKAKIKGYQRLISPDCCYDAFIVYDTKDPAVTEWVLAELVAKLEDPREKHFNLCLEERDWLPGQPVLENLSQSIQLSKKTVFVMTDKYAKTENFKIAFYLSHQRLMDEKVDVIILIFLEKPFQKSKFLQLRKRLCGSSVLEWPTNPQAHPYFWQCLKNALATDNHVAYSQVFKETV
Outline: (§1)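 Agonists (final): TLR7 gardiquimod 7.5 μM; TLR8 R848 15.9 μM; TLR9 ODN2006 5 nM. HEK-Blue reporter cells, 30 min RT compound pre-incubation, 0.05 nM–50 μM dose range, 22 h at 37 °C, colorimetric SEAP detection medium. % inhibition relative to agonist+DMSO and known-inhibitor wells.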

human TLR9 = target: T2, human TLR9 (Homo sapiens, UniProt Q9NR96); test: TLR9 inhibition reporter assay (HEK-Blue cells, SEAP reporter, ODN2006 stimulation); details: HEK-Blue cells overexpressing human TLR9, SEAP reporter, ODN2006 5 nM
T2 construct: host or cells: HEK-Blue cells (HEK293-derived reporter line)
T2 sequence (Q9NR96 26-1032): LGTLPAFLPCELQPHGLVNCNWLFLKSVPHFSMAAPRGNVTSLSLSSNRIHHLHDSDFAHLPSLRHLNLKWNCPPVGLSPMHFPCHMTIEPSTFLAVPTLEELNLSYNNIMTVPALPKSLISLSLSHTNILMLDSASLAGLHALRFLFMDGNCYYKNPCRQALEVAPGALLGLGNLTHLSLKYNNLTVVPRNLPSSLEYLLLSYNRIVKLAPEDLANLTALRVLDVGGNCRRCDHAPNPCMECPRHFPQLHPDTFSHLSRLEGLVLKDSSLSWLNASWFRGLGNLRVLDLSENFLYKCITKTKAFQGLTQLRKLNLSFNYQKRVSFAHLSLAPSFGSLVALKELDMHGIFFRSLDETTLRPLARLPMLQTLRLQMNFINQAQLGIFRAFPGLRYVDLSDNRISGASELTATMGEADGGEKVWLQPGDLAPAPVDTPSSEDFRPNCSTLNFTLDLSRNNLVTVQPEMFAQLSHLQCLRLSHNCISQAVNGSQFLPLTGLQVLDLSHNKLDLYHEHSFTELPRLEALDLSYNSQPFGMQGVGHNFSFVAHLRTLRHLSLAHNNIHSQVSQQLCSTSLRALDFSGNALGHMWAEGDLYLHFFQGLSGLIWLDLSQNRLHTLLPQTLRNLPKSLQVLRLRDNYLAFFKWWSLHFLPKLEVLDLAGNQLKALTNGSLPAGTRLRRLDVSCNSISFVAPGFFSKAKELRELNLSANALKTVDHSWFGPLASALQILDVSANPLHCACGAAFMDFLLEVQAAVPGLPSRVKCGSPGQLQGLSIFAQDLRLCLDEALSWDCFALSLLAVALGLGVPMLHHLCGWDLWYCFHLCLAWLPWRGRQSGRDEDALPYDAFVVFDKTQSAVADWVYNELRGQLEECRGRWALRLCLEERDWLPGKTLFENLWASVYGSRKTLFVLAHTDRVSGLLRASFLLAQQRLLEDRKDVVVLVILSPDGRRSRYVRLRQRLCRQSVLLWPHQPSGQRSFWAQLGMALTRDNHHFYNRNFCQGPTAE
Outline: as §1

human TLR8 = target: T3, human TLR8 (Homo sapiens, UniProt Q9NR97); test: TLR8 inhibition reporter assay (HEK-Blue cells, SEAP reporter, R848 stimulation); details: HEK-Blue cells overexpressing human TLR8, SEAP reporter, R848 15.9 μM
T3 construct: host or cells: HEK-Blue cells (HEK293-derived reporter line)
T3 sequence (Q9NR97 27-1041): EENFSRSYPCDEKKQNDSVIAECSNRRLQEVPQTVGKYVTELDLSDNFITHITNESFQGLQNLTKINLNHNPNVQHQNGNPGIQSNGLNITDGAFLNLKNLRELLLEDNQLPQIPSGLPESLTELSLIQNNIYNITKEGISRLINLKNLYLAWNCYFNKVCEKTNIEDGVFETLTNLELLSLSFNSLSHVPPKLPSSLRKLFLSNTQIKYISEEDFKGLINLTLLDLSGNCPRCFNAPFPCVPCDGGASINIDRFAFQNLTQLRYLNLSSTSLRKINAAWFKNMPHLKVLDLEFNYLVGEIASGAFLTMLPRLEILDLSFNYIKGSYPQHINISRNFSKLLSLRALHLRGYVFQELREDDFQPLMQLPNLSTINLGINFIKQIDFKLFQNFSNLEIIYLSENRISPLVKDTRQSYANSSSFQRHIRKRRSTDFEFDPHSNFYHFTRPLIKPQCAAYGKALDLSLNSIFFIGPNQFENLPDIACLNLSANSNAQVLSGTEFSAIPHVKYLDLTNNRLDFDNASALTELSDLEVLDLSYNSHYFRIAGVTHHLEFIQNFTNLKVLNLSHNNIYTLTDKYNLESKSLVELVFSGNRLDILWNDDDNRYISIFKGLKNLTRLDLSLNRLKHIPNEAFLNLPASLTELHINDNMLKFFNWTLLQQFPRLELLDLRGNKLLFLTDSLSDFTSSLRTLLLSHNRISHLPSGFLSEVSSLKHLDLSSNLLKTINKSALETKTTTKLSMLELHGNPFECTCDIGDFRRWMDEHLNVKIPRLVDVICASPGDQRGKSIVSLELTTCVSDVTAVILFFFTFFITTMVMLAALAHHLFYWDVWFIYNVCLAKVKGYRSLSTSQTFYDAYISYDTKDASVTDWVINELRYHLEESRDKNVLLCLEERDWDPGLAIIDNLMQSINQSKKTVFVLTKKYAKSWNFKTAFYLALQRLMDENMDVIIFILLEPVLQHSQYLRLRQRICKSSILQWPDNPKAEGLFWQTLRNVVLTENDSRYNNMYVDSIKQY
Outline: as §1

| SMILES | IC50 (human TLR7) | IC50 (human TLR9) | IC50 (human TLR8) |
| --- | --- | --- | --- |
| Cc1c(-c2ncnn3cccc23)[nH]c2ccc(C3CCN(C4CCN(C(C)C)CC4)CC3)cc12 [Example 806, 4-(5-(1′-isopropyl-[1,4′-bipiperidin]-4-yl)-3-methyl-1H-indol-2-yl)pyrrolo[2,1-f][1,2,4]triazine] | 1000 to 50000 nM | < 100 nM | < 100 nM |
| Cc1c(-c2[nH]c3ccc(C4CCN(C5COC5)CC4)cc3c2C(C)C)cn2nnnc2c1C [Example 739, 6-(3-isopropyl-5-(1-(oxetan-3-yl)piperidin-4-yl)-1H-indol-2-yl)-7,8-dimethyltetrazolo[1,5-a]pyridine] | < 100 nM | 1000 to 50000 nM | < 100 nM |
| CNC(=O)CN1CCC(c2ccc3[nH]c(-c4cc(C)n5nccc5c4)c(C(C)C)c3c2)CC1 [Example 443, 2-(4-(3-isopropyl-2-(7-methylpyrazolo[1,5-a]pyridin-5-yl)-1H-indol-5-yl)piperidin-1-yl)-N-methylacetamide] | < 100 nM | 1000 to 50000 nM | < 100 nM |
| CC(C)c1c(-c2cc(Cl)c3ncccc3c2)[nH]c2ccc(C3CCNCC3)cc12 [Example 139, 8-chloro-6-(3-isopropyl-5-(piperidin-4-yl)-1H-indol-2-yl)quinoline] | < 100 nM | 1000 to 50000 nM | < 100 nM |
| Cc1cc(-c2[nH]c3ccc(C4CCN(CC(C)(C)O)CC4)cc3c2C(C)C)cc2cnn(C)c12 [Example 762, 1-(4-(2-(1,7-dimethyl-1H-indazol-5-yl)-3-isopropyl-1H-indol-5-yl)piperidin-1-yl)-2-methylpropan-2-ol] | 100 to 1000 nM | 1000 to 50000 nM | 100 to 1000 nM |
| CC(C)c1c(-c2cn(C)c3ncccc23)[nH]c2ccc(C3CCN(CCC#N)CC3)cc12 [Example 959, 3-(4-(3-isopropyl-2-(1-methyl-1H-pyrrolo[2,3-b]pyridin-3-yl)-1H-indol-5-yl)piperidin-1-yl)propanenitrile] | < 100 nM | > 50000 nM | < 100 nM |
| CNCCN1CCC(c2ccc3[nH]c(-c4ccnc5[nH]ncc45)c(C(C)C)c3c2)C(F)C1 (stereo not drawn) [Example 679, 2-(3-fluoro-4-(3-isopropyl-2-(1H-pyrazolo[3,4-b]pyridin-4-yl)-1H-indol-5-yl)piperidin-1-yl)-N-methylethan-1-amine] | < 100 nM | 100 to 1000 nM | < 100 nM |
| Cc1cc(-c2[nH]c3ccc(C4CCN(CC(=O)N(C)C)CC4)cc3c2C(C)C)cn2cc(C(=O)N(C)CCO)nc12 [Example 344, 6-(5-(1-(2-(dimethylamino)-2-oxoethyl)piperidin-4-yl)-3-isopropyl-1H-indol-2-yl)-N-(2-hydroxyethyl)-N,8-dimethylimidazo[1,2-a]pyridine-2-carboxamide] | < 100 nM | 1000 to 50000 nM | < 100 nM |
| Cc1cc(-c2[nH]c3ccc(C4CCN(S(=O)(=O)CCO)CC4)cc3c2C(C)C)cn2nnnc12 [Example 616, 2-((4-(3-isopropyl-2-(8-methyltetrazolo[1,5-a]pyridin-6-yl)-1H-indol-5-yl)piperidin-1-yl)sulfonyl)ethan-1-ol] | < 100 nM | > 50000 nM | 100 to 1000 nM |
| CC(C)c1c(-c2ccc3nccn3c2)[nH]c2ccc(C3CCN(CC(=O)N(C)C)CC3)cc12 [Example 444, 2-(4-(2-(imidazo[1,2-a]pyridin-6-yl)-3-isopropyl-1H-indol-5-yl)piperidin-1-yl)-N,N-dimethylacetamide] | < 100 nM | 100 to 1000 nM | < 100 nM |
| CC(C)c1c(-c2ccc3c(N)n[nH]c3c2)[nH]c2ccc(C3CCNCC3)cc12 [Example 84, 6-(3-isopropyl-5-(piperidin-4-yl)-1H-indol-2-yl)-1H-indazol-3-amine] | 100 to 1000 nM | 100 to 1000 nM | 100 to 1000 nM |
| COc1cc(-c2[nH]c3ccc(C4CCN(C(=O)CN(C)C)CC4)cc3c2C(C)C)cc2nc(C)nn12 [Example 496, 2-(dimethylamino)-1-(4-(3-isopropyl-2-(5-methoxy-2-methyl-[1,2,4]triazolo[1,5-a]pyridin-7-yl)-1H-indol-5-yl)piperidin-1-yl)ethan-1-one] | < 100 nM | 1000 to 50000 nM | < 100 nM |
| CC(C)c1c(-c2cn(C)c3ncccc23)[nH]c2ccc(C3CCN(CC(N)=O)CC3)cc12 [Example 296, 2-(4-(3-isopropyl-2-(1-methyl-1H-pyrrolo [2,3-b]pyridin-3-yl)-1H-indol-5-yl)piperidin-1-yl)acetamide] | < 100 nM | 1000 to 50000 nM | < 100 nM |
| CC(C)c1c(-c2ccc(Cl)c3[nH]ncc23)[nH]c2ccc(C3CCNCC3)cc12 [Example 106, 7-chloro-4-(3-isopropyl-5-(piperidin-4-yl)-1H-indol-2-yl)-1H-indazole] | 100 to 1000 nM | 1000 to 50000 nM | 100 to 1000 nM |
